Laboratory results reported in patent US11053253B2, “Macrocyclic compounds for treatment of medical disorders” (Achillion Pharmaceuticals, Inc., priority 2017, dated 2021).

molecular target: Human Factor D (Homo sapiens (Human), UniProt P00746); assay: Human Factor D Assay; format: biochemical; details: Human Factor D 80 nM, substrate Z-L-Lys-SBzl, DTNB, A405; read-out: IC50 (Stars)
Outline: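 Serum-purified enzyme (80 nM final) was preincubated with compound 5 min at room temperature in 50 mM Tris, 1M NaCl, pH 7.5. Z-L-Lys-SBzl and DTNB ([…] each, final) were added and A405 followed every 30 s for 30 min; IC50 from nonlinear regression of reaction rates.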

Sequence of Human Factor D (P00746 26-253): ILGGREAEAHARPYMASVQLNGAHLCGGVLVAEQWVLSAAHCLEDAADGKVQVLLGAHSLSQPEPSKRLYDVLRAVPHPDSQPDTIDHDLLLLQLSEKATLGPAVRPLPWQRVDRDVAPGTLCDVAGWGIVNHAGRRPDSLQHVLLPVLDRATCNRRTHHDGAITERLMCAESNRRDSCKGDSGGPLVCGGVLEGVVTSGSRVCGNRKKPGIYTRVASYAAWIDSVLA

| Structure (SMILES) | IC50 |
| --- | --- |
| CC(=O)c1nn2c3c(nc(-c4cnc(C)nc4)cc13)CCCCCCC(=O)NC[C@@]13C[C@@H](C(=O)Nc4nc(C(F)(F)F)ccc4C)N(C(=O)C2)[C@@H]1C3 [Compound T-132] | < 1000 nM |
| Cc1ncc(-c2cc3c4c(c2)c(C#N)nn4CC(=O)N2[C@H](C(=O)Nc4nc(C(F)(F)F)ccc4C)C[C@@]4(CNC(=O)CCCC=CC3)C[C@@H]24)cn1 [Compound T-133] | < 1000 nM |
| Cc1ncc(-c2cc3c4c(c2)c(C(N)=O)nn4CC(=O)N2[C@H](C(=O)Nc4nc(C(F)(F)F)ccc4C)C[C@@]4(CNC(=O)CCCC=CC3)C[C@@H]24)cn1 [Compound T-134] | < 1000 nM |
| CC(=O)c1nn2c3c(cc(-c4cnc(C)nc4)cc13)CCCCCCCc1cccc(c1)COC[C@@]13C[C@@H](C(=O)Nc4nc(Br)ccc4C)N(C(=O)C2)[C@@H]1C3 [Compound T-136] | < 1000 nM |
| CC(=O)c1nn2c3c(cc(-c4cnc(C)nc4)cc13)CCCCC=CCc1cccc(n1)OC[C@@]13C[C@@H](C(=O)Nc4nc(Br)ccc4C)N(C(=O)C2)[C@@H]1C3 [Compound T-137] | < 1000 nM |
| CC(=O)c1nn2c3c(cc(-c4cnc(C)nc4)cc13)COCC=CC(F)(F)C(=O)NC[C@@]13C[C@@H](C(=O)Nc4nc(C(F)(F)F)ccc4C)N(C(=O)C2)[C@@H]1C3 [Compound T-138] | < 1000 nM |
| CC(=O)c1nn2c3c(cc(-c4cnc(C)nc4)cc13)CCCCCCCc1cccc(n1)OC[C@@]13C[C@@H](C(=O)Nc4nc(Br)ccc4C)N(C(=O)C2)[C@@H]1C3 [Compound T-139] | < 1000 nM |
| CC(=O)c1nn2c3c(cc(-c4cnc(C)nc4)cc13)CCCCCCc1cccc(n1)OC[C@@]13C[C@@H](C(=O)Nc4nc(Br)ccc4C)N(C(=O)C2)[C@@H]1C3 [Compound T-140] | < 1000 nM |
| CC(=O)c1nn2c3c(cc(-c4cnc(C)nc4)cc13)CCCCCc1cccc(n1)OC[C@@]13C[C@@H](C(=O)Nc4nc(Br)ccc4C)N(C(=O)C2)[C@@H]1C3 [Compound T-141] | < 1000 nM |
| Cc1ncc(-c2cc3c4c(c2)c(C(N)=O)nn4CC(=O)N2[C@H](C(=O)Nc4nc(Br)ccc4C)C[C@@]4(CNC(=O)CCCC=CC3)C[C@@H]24)cn1 [Compound T-152] | < 1000 nM |
| Cc1ncc(-c2cc3c4c(c2)c(C(N)=O)nn4CC(=O)N2[C@H](C(=O)Nc4nc(Br)ccc4C)C[C@@]4(CNC(=O)CCCCCC3)C[C@@H]24)cn1 [Compound T-153] | < 1000 nM |
| Cc1ncc(-c2cc3c4c(c2)c(C#N)nn4CC(=O)N2[C@H](C(=O)Nc4nc(C(F)(F)F)ccc4C)C[C@@]4(COCC=CCCC3)C[C@@H]24)cn1 [Compound T-154] | < 1000 nM |
| Cc1ncc(-c2cc3c(C#N)nn4c3c(n2)CCCCCCOC[C@@]23C[C@@H](C(=O)Nc5nc(C(F)(F)F)ccc5C)N(C(=O)C4)[C@@H]2C3)cn1 [Compound T-155] | < 1000 nM |
| Cc1ncc(-c2cc3c(C(N)=O)nn4c3c(n2)CCCCCCOC[C@@]23C[C@@H](C(=O)Nc5nc(C(F)(F)F)ccc5C)N(C(=O)C4)[C@@H]2C3)cn1 [Compound T-156] | < 1000 nM |
| CC(=O)c1nn(CC(=O)N2[C@H]3C[C@@]4(CNC(=O)C(F)(F)CCCOCc5ccc(Br)nc5NC3=O)C[C@@H]24)c2ccc(-c3cnc(C)nc3)cc12 [Compound T-157] | < 1000 nM |
| CC(=O)c1nn(CC(=O)N2C[C@@]3(F)COCCCCOCc4ccc(Br)nc4NC(=O)[C@@H]2C3)c2cnc(-c3cnc(C)nc3)cc12 [Compound T-161] | < 1000 nM |
| CC(=O)c1nn(CC(=O)N2C[C@@]3(F)COCCCCOCc4ccc(Br)nc4NC(=O)[C@@H]2C3)c2ccc(-c3cnc(C)nc3)cc12 [Compound T-162] | < 1000 nM |
| CC(=O)c1nn2c3c(nc(-c4cnc(C)nc4)cc13)CCCCCCCOC[C@@]13C[C@@H](C(=O)Nc4nc(C(F)(F)F)ccc4C)N(C(=O)C2)[C@@H]1C3 [Compound T-163] | < 1000 nM |

| Structure (SMILES) | IC50 |
| --- | --- |
| CC(=O)c1nn(CC(=O)N2[C@H]3C[C@@]4(CNC(=O)CCOCc5ccc(Br)nc5NC3=O)C[C@@H]24)c2ccc(-c3cnc(C)nc3)cc12 [Compound T-164] | < 1000 nM |
| CC(=O)c1nn(CC(=O)N2[C@H]3C[C@@]4(COc5cccc(n5)CCCCCCCc5ccc(Br)nc5NC3=O)C[C@@H]24)c2ccc(-c3cnc(C)nc3)cc12 [Compound T-165] | < 1000 nM |
| CC(=O)c1nn2c3c(cc(-c4cnc(C)nc4)cc13)CC=CCCCC(=O)NC[C@]1(F)CN(C[C@@H]1C(=O)Nc1nc(C(F)(F)F)ccc1C)C(=O)C2 [Compound T-167] | < 1000 nM |
| CC(=O)c1nn2c3c(cc(-c4cnc(C)nc4)cc13)CCCCCCC(=O)NC[C@@]1(F)C[C@@H](C(=O)Nc3nc(C(F)(F)F)ccc3C)N(C1)C(=O)C2 [Compound T-168] | < 1000 nM |
| CC(=O)c1nn(CC(=O)N2C[C@@]3(F)CNC(=O)CCCCCOCc4ccc(Br)nc4NC(=O)[C@@H]2C3)c2cnc(-c3cnc(C)nc3)cc12 [Compound T-169] | < 1000 nM |
| CC(=O)c1nn(CC(=O)N2C[C@@]3(F)CNC(=O)C(C)(C)CC=CCOCc4ccc(Br)nc4NC(=O)[C@@H]2C3)c2cnc(-c3cnc(C)nc3)cc12 [Compound T-170] | < 1000 nM |
| CC(=O)c1nn(CC(=O)N2C[C@@]3(F)CNC(=O)C(C)(C)CCCCOCc4ccc(Br)nc4NC(=O)[C@@H]2C3)c2cnc(-c3cnc(C)nc3)cc12 [Compound T-171] | < 1000 nM |
| CC(=O)c1nn(CC(=O)N2C[C@@]3(F)CNC(=O)C(C)(C)CC=CCOCc4ccc(Br)nc4NC(=O)[C@@H]2C3)c2ccc(-c3cnc(C)nc3)cc12 [Compound T-172] | < 1000 nM |
| CC(=O)c1nn(CC(=O)N2C[C@@]3(F)CNC(=O)C(C)(C)CCCCOCc4ccc(Br)nc4NC(=O)[C@@H]2C3)c2ccc(-c3cnc(C)nc3)cc12 [Compound T-173] | < 1000 nM |
| CC(=O)c1nn2c3c(cc(-c4cnc(C)nc4)cc13)CC=CCCCC(=O)NC[C@@]1(F)C[C@@H](C(=O)Nc3nc(Br)ccc3C)N(C1)C(=O)C2 [Compound T-174] | < 1000 nM |
| CC(=O)c1nn2c3c(cc(-c4cnc(C)nc4)cc13)CCCCCCC(=O)NC[C@@]1(F)C[C@@H](C(=O)Nc3nc(Br)ccc3C)N(C1)C(=O)C2 [Compound T-175] | < 1000 nM |
| CC(=O)c1nn2c3c(cc(-c4cnc(C)nc4)cc13)CCCCCCC(=O)NC[C@@]13C[C@@H](C(=O)N[C@@H](C)c4ccccc4)N(C(=O)C2)[C@@H]1C3 [Compound T-176] | < 1000 nM |
| CC(=O)c1nn2c3c(cc(-c4cnc(C)nc4)cc13)CCCCCCC(=O)NC[C@@]13C[C@@H](C(=O)NCCC(C)(C)C)N(C(=O)C2)[C@@H]1C3 [Compound T-177] | < 1000 nM |
| CC(=O)c1nn(CC(=O)N2C[C@@]3(F)CNC(=O)CCCCCOCc4ccc(Br)nc4NC(=O)[C@@H]2C3)c2ccc(-c3cnc(C)nc3)cc12 [Compound T-178] | < 1000 nM |
| CC(=O)c1nn(CC(=O)N2C[C@@]3(F)COCCCCCCc4ccc(Br)nc4NC(=O)[C@@H]2C3)c2cnc(-c3cnc(C)nc3)cc12 [Compound T-179] | < 1000 nM |
| CC(=O)c1nn(CC(=O)N2[C@H]3C[C@@]4(CNC(=O)C(C)(C)CCCCCc5ccc(Br)nc5NC3=O)C[C@@H]24)c2cnc(-c3cnc(C)nc3)cc12 [Compound T-180] | < 1000 nM |
| CC(=O)c1nn(CC(=O)N2[C@H]3C[C@@]4(CNC(=O)C(C)(C)CCCCc5ccc(Br)nc5NC3=O)C[C@@H]24)c2cnc(-c3cnc(C)nc3)cc12 [Compound T-181] | < 1000 nM |
| CC(=O)c1nn(CC(=O)N2[C@H]3C[C@@]4(CNC(=O)C(C)(C)CCCCCc5ccc(Br)nc5NC3=O)C[C@@H]24)c2ccc(-c3cnc(C)nc3)cc12 [Compound T-182] | < 1000 nM |
